Measured values as given in US12617795B2, “Substituted 6,7-dihydro-5H-pyrrolo[3,4-d]pyrimidines, 5,7-dihydrofuro[3,4-d]pyrimidines, and pyrido[2,3-d]pyrimidines as KCC2 modulators” (Astrazeneca AB, priority 2020, dated 2026).

Each compound was assayed against T1, KCC2 (Homo sapiens, UniProt Q9H2X9) (assay: KCC2 thallium transport FLIPR-based assay (Tl+ influx in HEK293 cells expressing KCC2)). Conditions: 90 min compound incubation at RT, thallium flux at 120 s used to determine EC50.
T1 construct: expressed in transfected cells; host or cells: HEK293 cells electroporated (Maxcyte STX) with the pcDNA3.1 KCC2 plasmid
T1 sequence (Q9H2X9 1-1139): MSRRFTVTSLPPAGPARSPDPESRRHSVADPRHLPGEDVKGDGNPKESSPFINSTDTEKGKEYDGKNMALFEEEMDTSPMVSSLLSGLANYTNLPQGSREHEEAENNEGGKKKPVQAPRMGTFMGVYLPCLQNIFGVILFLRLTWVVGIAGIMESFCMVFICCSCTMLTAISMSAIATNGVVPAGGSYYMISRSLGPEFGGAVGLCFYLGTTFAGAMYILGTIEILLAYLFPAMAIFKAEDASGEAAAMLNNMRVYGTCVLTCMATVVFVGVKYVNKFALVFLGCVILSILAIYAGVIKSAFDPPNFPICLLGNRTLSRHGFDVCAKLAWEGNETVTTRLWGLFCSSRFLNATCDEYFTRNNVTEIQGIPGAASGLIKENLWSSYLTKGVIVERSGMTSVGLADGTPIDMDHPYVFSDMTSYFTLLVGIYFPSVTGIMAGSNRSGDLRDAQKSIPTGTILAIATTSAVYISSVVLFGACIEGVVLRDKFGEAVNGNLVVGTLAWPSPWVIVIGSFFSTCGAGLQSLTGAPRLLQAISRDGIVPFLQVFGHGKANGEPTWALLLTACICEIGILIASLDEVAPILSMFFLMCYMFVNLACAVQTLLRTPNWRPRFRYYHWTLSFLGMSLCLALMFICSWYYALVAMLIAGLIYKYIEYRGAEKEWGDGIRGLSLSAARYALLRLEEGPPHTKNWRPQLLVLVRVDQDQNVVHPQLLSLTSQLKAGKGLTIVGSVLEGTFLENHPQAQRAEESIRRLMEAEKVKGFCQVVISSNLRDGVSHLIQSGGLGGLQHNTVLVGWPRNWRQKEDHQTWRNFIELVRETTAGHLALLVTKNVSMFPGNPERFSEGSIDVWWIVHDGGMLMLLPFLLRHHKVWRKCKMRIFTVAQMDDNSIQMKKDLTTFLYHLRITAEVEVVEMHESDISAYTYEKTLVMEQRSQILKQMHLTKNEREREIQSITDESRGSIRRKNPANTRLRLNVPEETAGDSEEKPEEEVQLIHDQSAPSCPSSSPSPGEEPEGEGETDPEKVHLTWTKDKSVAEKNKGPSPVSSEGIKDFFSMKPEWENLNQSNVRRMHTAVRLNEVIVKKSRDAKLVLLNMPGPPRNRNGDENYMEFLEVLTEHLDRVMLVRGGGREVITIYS
Format: cell-based
In short: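 Transient electroporation of codon-optimised human KCC2 into HEK293 cells, plated and cultured 48 h before dye loading (1 h, RT). Compounds run as a 12-point 1:2 series from 100 μM top, 90 min RT in buffer containing bumetanide; Tl+ flux read by FLIPR after stimulus addition, 1 s intervals over 120 s, with the 120 s signal used for EC50.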

How did the EC50 turn out when CC(C)N1Cc2c(Nc3ccc(C4CCCCC4)cc3)nc(N3CCOCC3CO)nc2C1=O (stereo not drawn) [Example 32, 4-[(4-cyclohexylphenyl)amino]-2-[3-(hydroxymethyl)morpholin-4-yl]-6-(propan-2-yl)-5,6-dihydro-7H-pyrrolo[3,4-d]pyrimidin-7-one] was run?
The EC50 was 4890 nM.

Which EC50 does the source give for c1cc(C2CCCCC2)ccc1Nc1nc(N2CCOC(C3CC3)C2)nc2c1COC2 (stereo not drawn) [Example 92, N-(4-cyclohexylphenyl)-2-(2-cyclopropyl-morpholin-4-yl)-5,7-dihydrofuro[3,4-d]pyrimidin-4-amine] here?
Its EC50 is 2370 nM.

For CC(C)N1Cc2c(Nc3ccc(C4CCCCC4)cc3)nc(N(C)CCc3ncon3)nc2C1=O [Example 23, 4-[(4-cyclohexylphenyl)amino]-2-{methyl[2-(1,2,4-oxadiazol-3-yl)ethyl]amino}-6-(propan-2-yl)-5,6-dihydro-7H-pyrrolo[3,4-d]pyrimidin-7-one], which EC50 is on record?
The EC50 was 2920 nM.

For CC(C)Oc1ccc(Nc2nc(N3CCOC(C4CC4)C3)nc3c2CN(C(C)C)C3=O)cc1 (stereo not drawn) [Example 62, 2-(2-cyclopropylmorpholin-4-yl)-6-(propan-2-yl)-4-({4-[(propan-2-yl)oxy]phenyl}amino)-5,6-dihydro-7H-pyrrolo[3,4-d]pyrimidin-7-one], which EC50 is on record?
Its EC50 is 5660 nM.

CC(C)N1Cc2c(Nc3ccc(C4CCCCC4)cc3)nc(N3CCO[C@H](CNC(=O)OC(C)(C)C)C3)nc2C1=O [Example 17, tert-butyl {[(2R)-4-{4-[(4-cyclohexylphenyl)amino]-7-oxo-6-(propan-2-yl)-6,7-dihydro-5H-pyrrolo[3,4-d]pyrimidin-2-yl}morpholin-2-yl]methyl}carbamate] was tested. Which EC50 did it give?
The EC50 was 1090 nM.

With CC(C)N1Cc2c(Nc3ccc(C4CCCCC4)cc3)nc(N3CCOC(C4CC4)C3)nc2C1=O (stereo not drawn) [Example 2, 4-((4-cyclohexylphenyl)amino)-2-(2-cyclopropylmorpholino)-6-isopropyl-5,6-dihydro-7H-pyrrolo[3,4-d]pyrimidin-7-one] as the compound, how does the EC50 read?
Its EC50 is 672 nM.

CC(C)N1Cc2c(Nc3ccc(-c4ccc(OCCNC(=O)OC(C)(C)C)cc4)cc3)nc(N3CCOCC3)nc2C1=O [Example 69, tert-Butyl (2-((4′-((6-isopropyl-2-morpholino-7-oxo-6,7-dihydro-5H-pyrrolo[3,4-d]pyrimidin-4-yl)amino)-[1,1′-biphenyl]-4-yl)oxy)ethyl)carbamate] was tested. Which EC50 did it give?
The EC50 was 1560 nM.

CC(C)N1Cc2c(Nc3ccc(C4CCCCC4)cc3)nc(-c3ccnc(C4CC4)c3)nc2C1=O [Example 42, 4-[(4-cyclohexylphenyl)amino]-2-(2-cyclopropylpyridin-4-yl)-6-(propan-2-yl)-5,6-dihydro-7H-pyrrolo[3,4-d]pyrimidin-7-one] was tested. Which EC50 did it give?
Its EC50 is 633 nM.

With C[C@@H]1CN(c2nc(Nc3ccc(C4CCCCC4)cc3)c3c(n2)C(=O)N(CCCN(C)C)C3)CCO1 [Example 72, (R)-4-((4-cyclohexylphenyl)amino)-6-(3-(dimethylamino)propyl)-2-(2-methylmorpholino)-5,6-dihydro-7H-pyrrolo[3,4-d]pyrimidin-7-one] as the compound, how does the EC50 read?
Its EC50 is 1530 nM.

With CC(C)N1Cc2c(Nc3ccc(C4CCCCC4)cc3)nc(-c3ccncc3)nc2C1=O [Example 46, 4-[(4-cyclohexylphenyl)amino]-6-(propan-2-yl)-2-(pyridin-4-yl)-5,6-dihydro-7H-pyrrolo[3,4-d]pyrimidin-7-one] as the compound, how does the EC50 read?
Its EC50 is 1290 nM.

CN(C)C(=O)CN1Cc2nc(C3=CCOCC3)nc(Nc3ccc(C4CCCCC4)cc3)c2C1 [Example 111, 2-{4-[(4-cyclohexylphenyl)amino]-2-(3,6-dihydro-2H-pyran-4-yl)-5,7-dihydro-6H-pyrrolo[3,4-d]pyrimidin-6-yl}-N,N-dimethylacetamide] was tested. Which EC50 did it give?
Its EC50 is 5350 nM.

For CC(C)c1ccc(Nc2nc(C3=CCOCC3)nc3c2CN(C(C)C)C3=O)cc1 [Example 50, 2-(3,6-dihydro-2H-pyran-4-yl)-6-(propan-2-yl)-4-{[4-(propan-2-yl)phenyl]amino}-5,6-dihydro-7H-pyrrolo[3,4-d]pyrimidin-7-one], which EC50 is on record?
The EC50 was 7980 nM.
